Holding throughout (experiment): NCI tumour cell line growth inhibition, 48 h
For experiment [1], the system named is ACHN.
Experiment [2] deals with CCRF-CEM.
In experiment [3] the test system is COLO 205.
Experiment [4] concerns HCT-116.
The test system of experiment [5] is IGROV-1.
Experiment [6] deals with K562.
The subject of experiment [7] is KM12.
The test system of experiment [8] is MCF7.
The test system of experiment [9] is NCI-H226.
The subject of experiment [10] is NCI-H23.
For experiment [11], the system named is OVCAR-8.
The subject of experiment [12] is RXF 393.
The subject of experiment [13] is SF-295.
Experiment [14] relates to SF-539.
In experiment [15] the test system is SNB-19.
Experiment [16] deals with SW-620.
Experiment [17] relates to T47D.
Experiment [18] has as its system TK-10.
Experiment [19] relates to LOX IMVI.

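Growth conditions: 96-well plates. Treatment: test compound, 48 hours, 5 concentrations. Analysis: linear interpolation between bracketing concentrations; unreached endpoints set to highest concentration. Here, GI50 denotes the concentration required for 50% inhibition of growth.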 Activity calls are given as the source filed them. Cut-off read from the data, not from the text of the source: active = GI50 up to about 1.1 µM and inactive = higher. Where only a bound is given, the exact number is not on record here.

On to `CSc1nc(O)c(C#N)c(-c2ccc(Cl)cc2)n1`, for which the GI50 in experiment [1] is > 100 µM (inactive); in [2], 61 µM (inactive); in experiment [3], > 100 µM (inactive); in experiment [4], 72.1 µM (inactive); in experiment [5], > 100 µM (inactive); in experiment [6] it was > 100 µM (inactive). Also, the GI50 in [7] is > 100 µM (inactive); in experiment [8] it was > 100 µM (inactive); in [9], > 100 µM (inactive); in experiment [10], > 100 µM (inactive); in experiment [11], > 100 µM (inactive); in [12], 66.7 µM (inactive). Also, the GI50 in experiment [13] is > 100 µM (inactive); in [14], > 100 µM (inactive); in experiment [15] it was 77.4 µM (inactive); in experiment [16] it was > 100 µM (inactive); in experiment [17] it was 43.7 µM (inactive); in experiment [18] it was > 100 µM (inactive).

Take `CCC(CS(=O)(=O)O)[N+](=O)[O-]` (centres undefined): the GI50 in experiment [1], in experiment [2], in experiment [3], in experiment [4], in experiment [5] and in experiment [6] was > 100 µM (inactive) in each case. Besides, the GI50 in [7], in experiment [19], in experiment [8], in experiment [9], in [10] and in experiment [11] was > 100 µM (inactive) each time. Further, the GI50 in [12], in [13], in [14], in experiment [15], in [16] and in experiment [17] was > 100 µM (inactive) in each case. In [18], the GI50 is > 100 µM (inactive).

As to `CC1=C(C#N)C(=C(C#N)C#N)OC1(C)Cc1ccccc1` (centres undefined), the GI50 is 18.5 µM (inactive) in experiment [1]; 21 µM (inactive) in [3]; 36.7 µM (inactive) in experiment [4]; 51.3 µM (inactive) in experiment [5]; 39.6 µM (inactive) in experiment [6]; 55.5 µM (inactive) in experiment [7]. Also, the GI50 in experiment [19] was 23.4 µM (inactive); in [8], 38.2 µM (inactive); in experiment [9], 31.2 µM (inactive); in [10], 36.7 µM (inactive); in [11], 65.5 µM (inactive); in experiment [12] it was 17.6 µM (inactive). Besides, the GI50 was 67.3 µM (inactive) in [13]; 64.7 µM (inactive) in experiment [14]; > 100 µM (inactive) in experiment [15]; 42.9 µM (inactive) in experiment [16]; 29.9 µM (inactive) in [17]; 36.4 µM (inactive) in experiment [18].

On to `NCCCNCCCCN1CC1`, for which the GI50 in experiment [1] was 1.3 µM (inactive); in [2] it was 0.836 µM (active); in experiment [3], 1.02 µM (active); in experiment [4], 6.92 µM (inactive); in experiment [5], 3.84 µM (inactive); in experiment [6], 2.49 µM (inactive). For the same molecule, the GI50 in [7] is 6.98 µM (inactive); in experiment [19], 0.637 µM (active); in [8], 28.9 µM (inactive); in [9] it was 8.49 µM (inactive); in experiment [10], 6.7 µM (inactive); in experiment [11], 2.07 µM (inactive). Further, the GI50 in experiment [12] is 0.705 µM (active); in [13], 20 µM (inactive); in experiment [14] it was 0.836 µM (active); in [15], 6.55 µM (inactive); in experiment [16], 2.31 µM (inactive); in [17], 0.265 µM (active). For the same molecule, the GI50 in experiment [18] is 5.96 µM (inactive).

(Values after ChEMBL document CHEMBL1201862, “PubChem BioAssay data set” (2004).)
